According to ChEMBL document CHEMBL3611970, “Synthesis and evaluation of isatin-β-thiosemicarbazones as novel agents against antibiotic-resistant Gram-positive bacterial species” (2015):
Values after ≈ are worked out from the molar mass of the structure shown.

Key:
Format in all cases: functional
[1] = test system: Staphylococcus aureus; assay: Antimicrobial activity against methicillin-resistant Staphylococcus aureus 309-1 clinical isolate after 16 hrs by broth microdilution method; details: 309-1, 16 h
[2] = test system: Staphylococcus aureus; assay: Antimicrobial activity against Staphylococcus aureus ATCC 6538 after 16 hrs by broth microdilution method; details: ATCC 6538, 16 h
[3] = test system: Enterococcus faecalis; assay: Antimicrobial activity against Enterococcus faecalis VRE-309 after 16 hrs by broth microdilution method; details: VRE-309, 16 h
[4] = test system: Staphylococcus aureus; assay: Antimicrobial activity against methicillin-resistant Staphylococcus aureus Chaoyang clinical isolate after 16 hrs by broth microdilution method
[5] = test system: Staphylococcus aureus; assay: Antimicrobial activity against methicillin-resistant Staphylococcus aureus 309-8 clinical isolate after 16 hrs by broth microdilution method; details: 309-8, 16 h
[6] = test system: Staphylococcus aureus; assay: Antimicrobial activity against methicillin-resistant Staphylococcus aureus 6-42 clinical isolate after 16 hrs by broth microdilution method; details: 6-42, 16 h
[7] = test system: Enterococcus faecalis; assay: Antimicrobial activity against vancomycin-susceptible Enterococcus faecalis after 16 hrs by broth microdilution method
[8] = test system: Staphylococcus aureus; assay: Antimicrobial activity against methicillin-resistant Staphylococcus aureus 8-21 clinical isolate after 16 hrs by broth microdilution method; details: 8-21, 16 h
[9] = test system: Staphylococcus aureus; assay: Antimicrobial activity against methicillin-resistant Staphylococcus aureus 309-3 clinical isolate after 16 hrs by broth microdilution method; details: 309-3, 16 h
[10] = test system: Staphylococcus aureus; assay: Antimicrobial activity against methicillin-resistant Staphylococcus aureus 309-7 clinical isolate after 16 hrs by broth microdilution method; details: 309-7, 16 h
[11] = test system: Staphylococcus aureus; assay: Antimicrobial activity against methicillin-resistant Staphylococcus aureus 6281 clinical isolate after 16 hrs by broth microdilution method; details: Staphylococcus aureus, 6281, 16 h
[12] = test system: Klebsiella pneumoniae; assay: Antimicrobial activity against Klebsiella pneumoniae KP-249 clinical isolate after 16 hrs by broth microdilution method; details: KP-249, 16 h
[13] = test system: Bacillus spizizenii; assay: Antimicrobial activity against Bacillus subtilis ATCC 6633 after 16 hrs by broth microdilution method; details: ATCC 6633, 16 h
[14] = test system: Staphylococcus aureus; assay: Antimicrobial activity against methicillin-resistant Staphylococcus aureus 8-24 clinical isolate after 16 hrs by broth microdilution method; details: 8-24, 16 h
[15] = test system: Staphylococcus aureus; assay: Antimicrobial activity against methicillin-resistant Staphylococcus aureus 309-6 clinical isolate after 16 hrs by broth microdilution method; details: 309-6, 16 h
[16] = test system: Pseudomonas aeruginosa; assay: Antimicrobial activity against Pseudomonas aeruginosa PAO1 after 16 hrs by broth microdilution method; details: PAO1, 16 h
[17] = test system: Staphylococcus aureus; assay: Antimicrobial activity against methicillin-resistant Staphylococcus aureus 309-4 clinical isolate after 16 hrs by broth microdilution method; details: 309-4, 16 h

| Structure (SMILES) | MIC [1] [µg/mL] | MIC [2] [µg/mL] | MIC [3] [µg/mL] | MIC [4] [µg/mL] | MIC [5] [µg/mL] | MIC [6] [µg/mL] | MIC [7] [µg/mL] | MIC [8] [µg/mL] | MIC [9] [µg/mL] | MIC [10] [µg/mL] | MIC [11] [µg/mL] | MIC [12] [µg/mL] | MIC [13] [µg/mL] | MIC [14] [µg/mL] | MIC [15] [µg/mL] | MIC [16] [µg/mL] | MIC [17] [µg/mL] |
| --- | --- | --- | --- | --- | --- | --- | --- | --- | --- | --- | --- | --- | --- | --- | --- | --- | --- |
| Cc1ccccc1NC(=S)N/N=C1\C(=O)Nc2c(Br)cccc21 | 1.56 (≈ 4.01 µM) | 1.56 (≈ 4.01 µM) | 6.25 (≈ 16.1 µM) | 0.78 (≈ 2 µM) | 1.56 (≈ 4.01 µM) | 0.78 (≈ 2 µM) | 12.5 (≈ 32.1 µM) | 1.56 (≈ 4.01 µM) | 1.56 (≈ 4.01 µM) | 0.78 (≈ 2 µM) | 3.12 (≈ 8.01 µM) | > 100 | ≤ 0.78 | 1.56 (≈ 4.01 µM) | 1.56 (≈ 4.01 µM) | > 100 | 1.56 (≈ 4.01 µM) |
| O=C1Nc2c(F)cccc2/C1=N/NC(=S)Nc1cccc(Cl)c1 | 0.78 (≈ 2.24 µM) | 0.78 (≈ 2.24 µM) | 1.56 (≈ 4.47 µM) | 0.39 (≈ 1.12 µM) | 0.78 (≈ 2.24 µM) | 0.39 (≈ 1.12 µM) | 1.56 (≈ 4.47 µM) | 0.78 (≈ 2.24 µM) | 0.78 (≈ 2.24 µM) | 0.39 (≈ 1.12 µM) | 1.56 (≈ 4.47 µM) | > 100 | ≤ 0.78 | 0.78 (≈ 2.24 µM) | 1.56 (≈ 4.47 µM) | > 100 | 0.78 (≈ 2.24 µM) |
| COc1ccccc1NC(=S)N/N=C1\C(=O)Nc2c(F)cccc21 | > 100 | > 100 | > 100 | > 100 | > 100 | > 100 | > 100 | > 100 | > 100 | > 100 | > 100 | > 100 | > 100 | > 100 | > 100 | > 100 | > 100 |
| COc1ccccc1NC(=S)N/N=C1\C(=O)Nc2c(I)cccc21 | 12.5 (≈ 27.6 µM) | > 100 | > 100 | 6.25 (≈ 13.8 µM) | 12.5 (≈ 27.6 µM) | 6.25 (≈ 13.8 µM) | > 100 | 12.5 (≈ 27.6 µM) | 25 (≈ 55.3 µM) | 6.25 (≈ 13.8 µM) | 25 (≈ 55.3 µM) | > 100 | 1.56 (≈ 3.45 µM) | 12.5 (≈ 27.6 µM) | 25 (≈ 55.3 µM) | > 100 | 12.5 (≈ 27.6 µM) |
| COc1cccc(NC(=S)N/N=C2\C(=O)Nc3c(Br)cccc32)c1 | 1.56 (≈ 3.85 µM) | 6.25 (≈ 15.4 µM) | > 100 | 0.78 (≈ 1.92 µM) | 3.12 (≈ 7.7 µM) | 1.56 (≈ 3.85 µM) | > 100 | 1.56 (≈ 3.85 µM) | 3.12 (≈ 7.7 µM) | 0.78 (≈ 1.92 µM) | 6.25 (≈ 15.4 µM) | > 100 | ≤ 0.78 | 1.56 (≈ 3.85 µM) | 6.25 (≈ 15.4 µM) | > 100 | 1.56 (≈ 3.85 µM) |
| Cc1ccc(NC(=S)N/N=C2\C(=O)Nc3c(C)cccc32)cc1 | 3.12 (≈ 9.62 µM) | 3.12 (≈ 9.62 µM) | 3.12 (≈ 9.62 µM) | 1.56 (≈ 4.81 µM) | 1.56 (≈ 4.81 µM) | 1.56 (≈ 4.81 µM) | 6.25 (≈ 19.3 µM) | 3.12 (≈ 9.62 µM) | 3.12 (≈ 9.62 µM) | 1.56 (≈ 4.81 µM) | 3.12 (≈ 9.62 µM) | > 100 | ≤ 0.78 | 3.12 (≈ 9.62 µM) | 3.12 (≈ 9.62 µM) | > 100 | 1.56 (≈ 4.81 µM) |
| Cc1ccccc1NC(=S)N/N=C1\C(=O)Nc2c(I)cccc21 | 3.12 (≈ 7.15 µM) | 3.12 (≈ 7.15 µM) | 6.25 (≈ 14.3 µM) | 0.78 (≈ 1.79 µM) | 3.12 (≈ 7.15 µM) | 0.78 (≈ 1.79 µM) | 12.5 (≈ 28.7 µM) | 1.56 (≈ 3.58 µM) | 3.12 (≈ 7.15 µM) | 1.56 (≈ 3.58 µM) | 6.25 (≈ 14.3 µM) | > 100 | ≤ 0.78 | 3.12 (≈ 7.15 µM) | 6.25 (≈ 14.3 µM) | > 100 | 1.56 (≈ 3.58 µM) |
| COc1ccccc1NC(=S)N/N=C1\C(=O)Nc2c(Br)cccc21 | > 100 | > 100 | > 100 | 25 (≈ 61.7 µM) | > 100 | > 100 | > 100 | > 100 | > 100 | > 100 | > 100 | > 100 | 25 (≈ 61.7 µM) | > 100 | > 100 | > 100 | > 100 |
| Cc1cccc(NC(=S)N/N=C2\C(=O)Nc3c(Cl)cccc32)c1 | 0.78 (≈ 2.26 µM) | 1.56 (≈ 4.52 µM) | 3.12 (≈ 9.05 µM) | 0.78 (≈ 2.26 µM) | 1.56 (≈ 4.52 µM) | 0.78 (≈ 2.26 µM) | 6.25 (≈ 18.1 µM) | 0.78 (≈ 2.26 µM) | 1.56 (≈ 4.52 µM) | 0.78 (≈ 2.26 µM) | 3.12 (≈ 9.05 µM) | > 100 | ≤ 0.78 | 1.56 (≈ 4.52 µM) | 1.56 (≈ 4.52 µM) | > 100 | 1.56 (≈ 4.52 µM) |
| O=C1Nc2c(I)cccc2/C1=N/NC(=S)Nc1cccc(F)c1 | 0.78 (≈ 1.77 µM) | 1.56 (≈ 3.54 µM) | 3.12 (≈ 7.09 µM) | 0.78 (≈ 1.77 µM) | 0.78 (≈ 1.77 µM) | 0.78 (≈ 1.77 µM) | 6.25 (≈ 14.2 µM) | 1.56 (≈ 3.54 µM) | 1.56 (≈ 3.54 µM) | 0.78 (≈ 1.77 µM) | 3.12 (≈ 7.09 µM) | > 100 | ≤ 0.78 | 1.56 (≈ 3.54 µM) | 1.56 (≈ 3.54 µM) | > 100 | 0.78 (≈ 1.77 µM) |
| O=C1Nc2c(Br)cccc2/C1=N/NC(=S)Nc1cccc(Cl)c1 | 1.56 (≈ 3.81 µM) | 1.56 (≈ 3.81 µM) | 1.56 (≈ 3.81 µM) | 0.39 (≈ 0.952 µM) | 1.56 (≈ 3.81 µM) | 0.78 (≈ 1.9 µM) | 3.12 (≈ 7.62 µM) | 1.56 (≈ 3.81 µM) | 1.56 (≈ 3.81 µM) | 0.78 (≈ 1.9 µM) | 1.56 (≈ 3.81 µM) | > 100 | ≤ 0.78 | 1.56 (≈ 3.81 µM) | 1.56 (≈ 3.81 µM) | > 100 | 0.78 (≈ 1.9 µM) |
| COc1cccc(NC(=S)N/N=C2\C(=O)Nc3c(I)cccc32)c1 | 6.25 (≈ 13.8 µM) | > 100 | 25 (≈ 55.3 µM) | 1.56 (≈ 3.45 µM) | 25 (≈ 55.3 µM) | 3.12 (≈ 6.9 µM) | > 100 | 6.25 (≈ 13.8 µM) | 12.5 (≈ 27.6 µM) | 3.12 (≈ 6.9 µM) | 25 (≈ 55.3 µM) | > 100 | 1.56 (≈ 3.45 µM) | 6.25 (≈ 13.8 µM) | 25 (≈ 55.3 µM) | > 100 | 6.25 (≈ 13.8 µM) |
